From patent publication US11110115B2, “Nucleic acid molecule with anti-inflammatory and anti-coagulant and organ-protective properties” (APTAHEM AB, priority 2017, dated 2021)

What was measured:
[1] = Activated partial thromboplastin time (APTT) in arteriovenous shunt model; assay type: in vivo, Sprague-Dawley male rats; details: SEQ ID NO:2 33.3 mg/kg i.v. 5 min prior; Rivaroxaban 10 mg/kg p.o. 90 min prior
[2] = Arteriovenous shunt model, thrombus weight; assay type: in vivo, Sprague-Dawley male rats; details: SEQ ID NO:2 33.3 mg/kg i.v. 5 min prior; Rivaroxaban 10 mg/kg p.o. 90 min prior; 15 min extracorporeal circulation
Experimental: This study was conducted at Shanghai WuXi AppTec Co., Ltd., and in accordance with WuXi IACUC standard animal procedures along with the IACUC guidelines that are in compliance with the Animal Welfare Act, the Guide for the Care and Use of Laboratory Animals, and the Office of Laboratory Animal Welfare (OLAW). Sprague-Dawley male rats with body weight ranging between 150-200 g (Vital River; Bejing, P.R. China) were fed ad libitum a rodent diet. Animals had free access to autoclaved and acidified drinking water. Animals were housed under standard laboratory conditions, air conditioned and filtered with adequate fresh air supply. Animals were kept in a climate controlled environment. Rivaroxaban (10 mg/kg) has been dissolved in water and stored at 4° C. 20 mg SEQ ID NO:2 (Biospring) was dissolved in 3 ml Saline, vortexed for 5 min., sonicated with a water bath ultrasonic for 1 minute to achieve 6.66 mg/ml SEQ ID NO:2. The animals were assigned to 3 dosing groups according to the body weight (see table 2). […] Extracorporeal circulation was maintained for 15 min, the thrombus weight formed on the thread was calculated by subtracting the average weight of the rough nylon thread. Significance of difference between control and treated groups was analyzed by performing analysis of variance (ANOVA) by EXCEL office software.

[3] = Prothrombin time in arteriovenous shunt model; assay type: in vivo, Sprague-Dawley male rats; details: SEQ ID NO:2 33.3 mg/kg i.v. 5 min prior; Rivaroxaban 10 mg/kg p.o. 90 min prior
Experimental: FIG. 2: Anti-coagulant activity of SEQ ID NO:2 in Arteriovenous Shunt model. Male rats were intravenously injected with saline (Vehicle) or SEQ ID NO:2 solution, according to their body weight. Rivaroxaban was orally administered to the positive control group. 5 to 90 minutes after administration, rats were anesthetized with pentobarbital-na (50 mg/kg). The left jugular vein and the right carotid artery of anesthetized rats were connected with two catheters. The thrombus weight formed on the thread was calculated by subtracting the average weight of the rough nylon thread (A). Prothrombin times were measured (B) and Activated partial thromboplastin times (APTT) were analysed (C). Each bar represents the mean±SEM (n=8 for vehicle and rivaroxaban groups, n=3 for SEQ ID NO:2 group), *p<0.05, **p<0.01, ***p<0.001 vs Vehicle.
The animals were assigned to 3 dosing groups according to the body weight (see table 2). Vehicle treated animals were intravenously injected with saline 90 min prior to shunt assay. The positive control treated animals were orally given Rivaroxaban 10 mg/kg at 90 min prior to shunt assay. SEQ ID NO:2 was intravenously injected 5 min prior to shunt assay.

[4] = Tail bleeding model (bleeding time); assay type: in vivo, Sprague-Dawley rats; details: SEQ ID NO:2 5, 20, 40 mg/kg i.v. 5 min before, Rivaroxaban 10 mg/kg PO 1 hour before, Warfarin 0.5 mg/kg IV
Experimental: A total of 36 Sprague-Dawley male and female rats were utilized and divided into six groups comprising of 6 animals per group. Animal handling was performed according to guidelines of the National Institute of Health and the Association for Assessment and Accreditation of Laboratory Animal Care. Animals were fed ad libitum a commercial rodent diet (Teklad Certified Global 18% Protein Diet cat #: 2018SC). Animals had free access to autoclaved and acidified drinking water (pH between 2.5 and 3.5) obtained from the municipality supply. Animals were housed under standard laboratory conditions, air conditioned and filtered with adequate fresh air supply. Animals were kept in a climate controlled environment.
SEQ ID NO:2 (Biospring) (100 mg) was dissolved in 5 ml saline to form a stock solution of 20 mg/ml. Vehicle (saline) was provided by Pharmaseed as ready to use for i.v. administration. Rivaroxaban (Bayer, Pharmaseed Ltd) dosing solution was diluted at 10 mg/kg (Group 2M). Warfarin (Ceriliant, Pharmaseed Ltd) was diluted at 0.5 mg/kg (Group 3M). Both Rivaroxaban and Warfarin are clinical standards with anticoagulation activity. To obtain SEQ ID NO:2 dosing solution (2.5 mg/ml) for dose level of 5 mg/kg and dose volume of 2 ml/kg for i.v. injection, 0.375 ml of the above 20 mg/ml stock solution was diluted with 2.625 ml of saline (Group 4M). To obtain SEQ ID NO:2 dosing solution (10 mg/ml) for dose level of 20 mg/kg and dose volume of 2 ml/kg for i.v. injection, 1.5 ml of the above 20 mg/ml stock solution was diluted with 1.5 ml saline (Group 5M). To obtain SEQ ID NO:2 dosing solution (20 mg/ml) for dose level of 40 mg/kg and dose volume of 2 ml/kg for i.v. injection, the above 20 mg/ml stock used (Group 6).
Rats were intravenously injected five minutes before bleeding time assay. […] Three treated groups received SEQ ID NO:2 at dose levels of 5, 20 and 40 mg/kg saline solution. In each gender, control groups received saline Vehicle. A positive control group received Rivaroxaban (10 mg/kg). Rivaroxaban was administered by oral gavage 1 hour before bleeding time assay. A second positive control groups received Warfarin (0.5 mg/kg).
Male and female rats were anaesthetized by intraperitoneal injection of ketamine/xylazine. Bleeding time was monitored as described in Stupnisek et al. (2012), until blood flow stopped for a complete 30-sec interval or till the end of 30 min period. In deeply anaesthetized rats (placed in ventral position) the tail was transected with a surgical scalpel 2 mm from the tip (and submerged into a tube with 40 ml of saline at room temperature in vertical position) and the duration and amount of bleeding was measured to evaluate the hemostatic effect of the agents or saline administration. Following the completion of bleeding time evaluation, all rats were immediately sacrificed by CO2 asphyxiation.
Numerical results were given as means±standard errors. If applicable, statistical analysis was carried out using one-way ANOVA followed by Dunnett's Multiple Comparison post Test. A probability of 5% (p≤0.05) was regarded as significant.

| SMILES | Activated Partial Thromboplastin Time (APTT) compared to vehicle group [1] | thrombus weight, less than vehicle group [2] | Prothrombin times compared to vehicle group [3] | group average bleeding time compared to matched vehicle group ([4]; female rats) | group average bleeding time compared to matched vehicle group ([4]; male rats) |
| --- | --- | --- | --- | --- | --- |
| O=C(NC[C@H]1CN(c2ccc(N3CCOCC3=O)cc2)C(=O)O1)c1ccc(Cl)s1 [Rivaroxaban, reference compound] | did not show any different | 26.5% | significantly prolonged | increased significantly | increased significantly |
| CC(=O)CC(c1ccccc1)c1c(O)c2ccccc2oc1=O (stereo not shown) [Warfarin, reference compound] |  |  |  | increased significantly | increased significantly |
